One assay has as its target CDK4 (Homo sapiens (Human), UniProt P11802). Description: Phospho-Serine 795 Rb ELISA assay in JEKO-1 cells. The assay is classed as cell-based. To be noted: overnight treatment, phospho-Rb S795, read-out: CDK4 pRB S795 ELISA JEKO-1 cells IC50. (In general: In an ELISA, binding on a coated surface is turned into a signal by an enzyme label.)
For another assay, the target named is CDK6/Cyclin D3 (Homo sapiens (Human), UniProt Q00534). Description: CDK6/Cyclin D3 mobility shift assay. The assay is classed as biochemical. To be noted: activated CDK6/Cyclin D3, 3.5 mM ATP, Morrison fit; read-out: CDK6_D3 Ki.
Another assay deals with CDK6 (Homo sapiens (Human), UniProt Q00534). Description: Phospho-Serine 795 Rb ELISA assay in MV4-11 cells. The assay is classed as cell-based. To be noted: overnight treatment, phospho-Rb S795, read-out: CDK6 pRB S795 ELISA MV4-11 cells IC50.
The target in another assay is CDK4/Cyclin D1 (Homo sapiens (Human), UniProt P11802). Description: CDK4/Cyclin D1 mobility shift assay. The assay is classed as biochemical. To be noted: activated CDK4/Cyclin D1, 3.5 mM ATP, Morrison fit; read-out: CDK4D1 Ki.

Counter-ions that a name gives are not always drawn.

Sequence of CDK4 (P11802 2-303): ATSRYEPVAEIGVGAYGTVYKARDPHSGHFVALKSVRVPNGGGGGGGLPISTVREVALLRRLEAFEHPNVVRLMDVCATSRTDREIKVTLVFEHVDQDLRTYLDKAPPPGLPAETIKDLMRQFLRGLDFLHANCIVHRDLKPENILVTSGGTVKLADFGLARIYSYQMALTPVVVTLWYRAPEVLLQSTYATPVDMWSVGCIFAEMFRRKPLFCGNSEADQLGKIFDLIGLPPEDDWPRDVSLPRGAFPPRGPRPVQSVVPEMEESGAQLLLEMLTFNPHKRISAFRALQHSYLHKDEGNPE
Sequence of CDK4 (P24385 whole entry partner): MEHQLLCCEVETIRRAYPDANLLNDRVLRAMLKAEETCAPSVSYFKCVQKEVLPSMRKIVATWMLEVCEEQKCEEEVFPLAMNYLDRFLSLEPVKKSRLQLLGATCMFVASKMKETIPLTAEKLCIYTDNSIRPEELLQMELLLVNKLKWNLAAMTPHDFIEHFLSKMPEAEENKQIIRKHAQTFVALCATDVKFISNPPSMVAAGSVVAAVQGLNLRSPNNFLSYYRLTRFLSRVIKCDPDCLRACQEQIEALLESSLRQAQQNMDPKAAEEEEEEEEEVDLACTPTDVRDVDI
Sequence of CDK4/Cyclin D1 (P11802 whole entry): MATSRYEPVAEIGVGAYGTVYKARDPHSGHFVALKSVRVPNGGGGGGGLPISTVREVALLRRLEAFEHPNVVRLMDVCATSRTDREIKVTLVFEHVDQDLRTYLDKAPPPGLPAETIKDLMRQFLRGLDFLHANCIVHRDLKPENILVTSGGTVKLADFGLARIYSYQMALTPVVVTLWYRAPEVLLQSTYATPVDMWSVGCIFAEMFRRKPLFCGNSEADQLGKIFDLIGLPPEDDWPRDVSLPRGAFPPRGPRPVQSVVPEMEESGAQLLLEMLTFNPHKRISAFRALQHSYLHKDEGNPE
Sequence of CDK4/Cyclin D1 (P24385 whole entry partner): as the sequence (P24385 whole entry partner) above
Sequence of CDK6/Cyclin D3 (Q00534 whole entry): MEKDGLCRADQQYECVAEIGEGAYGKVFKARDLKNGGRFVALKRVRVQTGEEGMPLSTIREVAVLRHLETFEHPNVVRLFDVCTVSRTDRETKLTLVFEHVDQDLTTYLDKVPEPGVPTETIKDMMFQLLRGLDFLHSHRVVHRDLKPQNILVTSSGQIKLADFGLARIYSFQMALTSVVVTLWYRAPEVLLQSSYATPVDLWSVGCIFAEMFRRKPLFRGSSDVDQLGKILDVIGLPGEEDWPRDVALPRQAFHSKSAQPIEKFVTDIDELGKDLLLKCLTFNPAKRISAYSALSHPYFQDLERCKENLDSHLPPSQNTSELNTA
Sequence of CDK6/Cyclin D3 (P30281 whole entry partner): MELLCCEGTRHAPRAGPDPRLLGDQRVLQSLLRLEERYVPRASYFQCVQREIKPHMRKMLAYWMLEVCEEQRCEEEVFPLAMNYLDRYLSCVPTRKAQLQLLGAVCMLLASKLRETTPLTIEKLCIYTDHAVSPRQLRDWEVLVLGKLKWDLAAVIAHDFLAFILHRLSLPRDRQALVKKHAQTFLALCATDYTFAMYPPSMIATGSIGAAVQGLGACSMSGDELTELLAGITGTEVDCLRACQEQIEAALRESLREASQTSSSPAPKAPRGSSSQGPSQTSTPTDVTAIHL
Sequence of CDK6 (Q00534 whole entry): as the sequence (Q00534 whole entry) above
Sequence of CDK6 (P30281 whole entry partner): as the sequence (P30281 whole entry partner) above

One may read the IC50 as the concentration that gives 50% inhibition. As usually defined, the Ki is a dissociation constant, usually derived from enzyme kinetics or from competition with a known ligand. Turning to `CC(C)n1cnc2c(F)cc(-c3nc(N[C@@H]4CCN(C(=O)C5(F)CNC5)C[C@H]4O)ncc3Cl)cc21` [Example F27, [(3R,4R)-4-({5-chloro-4-[4-fluoro-1-(propan-2-yl)-1H-benzimidazol-6-yl]pyrimidin-2-yl}amino)-3-hydroxypiperidin-1-yl](3-fluoroazetidin-3-yl)methanone], the IC50 at CDK4 is 60.8 nM; at CDK6 it was 188 nM. The Ki at CDK6/Cyclin D3 worked out at 5.1 nM; at CDK4/Cyclin D1 it was 0.5 nM.
As to `CNCc1nc2c(F)cc(-c3nc(N[C@@H]4CCOC[C@H]4O)ncc3Cl)cc2n1C(C)C` [Example A44, 1,5-anhydro-3-[(5-chloro-4-{4-fluoro-2-[(methylamino)methyl]-1-(propan-2-yl)-1H-benzimidazol-6-yl}pyrimidin-2-yl)amino]-2,3-dideoxy-D-threo-pentitol], the values for the IC50 at CDK4 and at CDK6 were 76.5 nM and 408 nM, respectively. Further, the Ki at CDK6/Cyclin D3 is 114 nM; on CDK4/Cyclin D1 it was 4.9 nM.
`CC(C)n1c([C@@H](C)O)nc2c(F)cc(-c3nc(N[C@@H]4CCOC[C@H]4O)ncc3Cl)cc21` [Example A13]: the IC50 at CDK4 turned out to be 72.2 nM; on CDK6 it was 277 nM. Besides, the Ki was determined as 31.5 nM on CDK6/Cyclin D3 and 1.7 nM on CDK4/Cyclin D1.
In the same order, the values of `Cc1cnc(N[C@@H]2CCN(S(C)(=O)=O)C[C@H]2O)nc1-c1cc(F)c2nc(C)n(C(C)C)c2c1` [Example A83, (3R,4R)-4-({4-[4-fluoro-2-methyl-1-(propan-2-yl)-1H-benzimidazol-6-yl]-5-methylpyrimidin-2-yl}amino)-1-(methanesulfonyl)piperidin-3-ol] are 395 nM, 1220 nM, 88.5 nM and 4.1 nM.
`CC(C)n1c(CN2CC(C)(O)C2)nc2c(F)cc(-c3nc(N[C@@H]4CCOC[C@H]4O)ncc3Cl)cc21` [Example H01, 1,5-anhydro-3-[(5-chloro-4-{4-fluoro-2-[(3-hydroxy-3-methylazetidin-1-yl)methyl]-1-(propan-2-yl)-1H-benzimidazol-6-yl}pyrimidin-2-yl)amino]-2,3-dideoxy-D-threo-pentitol]: the IC50 on CDK4 turned out to be 137 nM; at CDK6 it was 858 nM. In addition, the Ki at CDK6/Cyclin D3 was 127 nM; at CDK4/Cyclin D1, 2.4 nM.
As for `C[C@H](O)C(=O)N1CC[C@@H](Nc2ncc(Cl)c(-c3cc(F)c4ncn(C(C)(C)C)c4c3)n2)[C@H](O)C1` [Example F21, (2S)-1-[(3R,4R)-4-{[4-(1-tert-butyl-4-fluoro-1H-benzimidazol-6-yl)-5-chloropyrimidin-2-yl]amino}-3-hydroxypiperidin-1-yl]-2-hydroxypropan-1-one], the figures for the IC50 on CDK4 and at CDK6 were 59.5 nM and 246 nM, respectively. In addition, the figures for the Ki on CDK6/Cyclin D3 and at CDK4/Cyclin D1 were 7.7 nM and 0.4 nM, respectively.
As for `CC1(C)OCCn2nc3c(F)cc(-c4nc(N[C@@H]5CCN(S(C)(=O)=O)C[C@H]5O)ncc4Cl)cc3c21` [Example A26], the IC50 is 12.2 nM at CDK4 and 24.3 nM on CDK6. The Ki stood at 4.2 nM at CDK6/Cyclin D3 and 0.2 nM on CDK4/Cyclin D1.
`C[C@H](O)c1nc2c(F)cc(-c3nc(N[C@@H]4CCOC[C@H]4O)ncc3Cl)cc2n1C(C)(C)C` [Example A61, 1,5-anhydro-3-[(4-{1-tert-butyl-4-fluoro-2-[(1S)-1-hydroxyethyl]-1H-benzimidazol-6-yl}-5-chloropyrimidin-2-yl)amino]-2,3-dideoxy-D-threo-pentitol]: the IC50 on CDK4 was determined as 11.4 nM; on CDK6, 33.5 nM. Moreover, the values for the Ki on CDK6/Cyclin D3 and on CDK4/Cyclin D1 were 2.6 nM and 0.2 nM, respectively.
In the same order, the values of `CC1(C)CCc2nc3c(F)cc(-c4nc(N[C@@H]5CCN(S(C)(=O)=O)C[C@H]5O)ncc4Cl)cc3n21` [Example A09] are 16.8 nM, 57.6 nM, 1.4 nM and 0.1 nM.
On to `CNCC(=O)N1CC[C@@H](Nc2ncc(Cl)c(-c3cc(F)c4ncn(C(C)(C)C)c4c3)n2)[C@H](O)C1` [Example F25, 1-[(3R,4R)-4-{[4-(1-tert-butyl-4-fluoro-1H-benzimidazol-6-yl)-5-chloropyrimidin-2-yl]amino}-3-hydroxypiperidin-1-yl]-2-(methylamino)ethan-1-one], for which the IC50 at CDK4 and on CDK6 was 455 nM each time. The inhibitory constant (Ki) stood at 19.3 nM at CDK6/Cyclin D3 and 1.2 nM on CDK4/Cyclin D1.
With `CC(C(F)F)n1c(CO)nc2c(F)cc(-c3nc(N[C@@H]4CCN(S(C)(=O)=O)C[C@H]4O)ncc3Cl)cc21` (stereo partly drawn) [Example A92, (3R,4R)-4-({5-chloro-4-[1-(1,1-difluoropropan-2-yl)-4-fluoro-2-(hydroxymethyl)-1H-benzimidazol-6-yl]pyrimidin-2-yl}amino)-1-(methanesulfonyl)piperidin-3-ol], the figures for the IC50 on CDK4 and on CDK6 were 23.8 nM and 42.9 nM, respectively. Also, the Ki at CDK6/Cyclin D3 was 0.9 nM; at CDK4/Cyclin D1, 0.1 nM.
The corresponding values for `CN(C)CCN1CC[C@@H](Nc2ncc(Cl)c(-c3cc(F)c4ncn(C(C)(C)C)c4c3)n2)[C@H](O)C1` [Example F06, (3R,4R)-4-{[4-(1-tert-butyl-4-fluoro-1H-benzimidazol-6-yl)-5-chloropyrimidin-2-yl]amino}-1-[2-(dimethylamino)ethyl]piperidin-3-ol formic acid salt] are 161 nM, 134 nM, 27.8 nM and 1.5 nM.
With `CC(C)(C)n1cnc2c(F)cc(-c3nc(N[C@@H]4CCN(C(=O)C5(N)CC(F)(F)C5)C[C@H]4O)ncc3Cl)cc21` [Example F30, (1-amino-3,3-difluorocyclobutyl)[(3R,4R)-4-{[4-(1-tert-butyl-4-fluoro-1H-benzimidazol-6-yl)-5-chloropyrimidin-2-yl]amino}-3-hydroxypiperidin-1-yl]methanone], the IC50 on CDK4 was 66.1 nM; on CDK6 it was 377 nM. Also, the Ki at CDK6/Cyclin D3 is 12.5 nM; on CDK4/Cyclin D1, 0.5 nM.
In the case of `CCc1nc2c(F)cc(-c3nc(N[C@@H]4CCN(S(C)(=O)=O)C[C@H]4O)ncc3Cl)cc2n1C1COC1` [Example A71, (3R,4R)-4-({5-chloro-4-[2-ethyl-4-fluoro-1-(oxetan-3-yl)-1H-benzimidazol-6-yl]pyrimidin-2-yl}amino)-1-(methanesulfonyl)piperidin-3-ol], the concentration for half-maximal inhibition (IC50) on CDK4 is 94.9 nM; on CDK6, 287 nM. Besides, the Ki was 11.4 nM on CDK6/Cyclin D3 and 0.8 nM on CDK4/Cyclin D1.
As to `CC(C)n1c(CN2C[C@@](C)(O)[C@@H]2C)nc2c(F)cc(-c3nc(N[C@@H]4CCOC[C@H]4O)ncc3Cl)cc21` [Example H04, 1,5-anhydro-3-({5-chloro-4-[4-fluoro-2-{[(2S,3R)-3-hydroxy-2,3-dimethylazetidin-1-yl]methyl}-1-(propan-2-yl)-1H-benzimidazol-6-yl]pyrimidin-2-yl}amino)-2,3-dideoxy-D-threo-pentitol], the IC50 is 63.4 nM at CDK4 and 221 nM on CDK6. Also, the values for the Ki at CDK6/Cyclin D3 and on CDK4/Cyclin D1 were 38.2 nM and 0.8 nM, respectively.
Turning to `Cc1nc2c(F)cc(-c3nc(N[C@@H]4CCN(S(C)(=O)=O)C[C@H]4O)ncc3Cl)cc2n1[C@H](C)CN` [Example A38, (3R,4R)-4-[(4-{1-[(2R)-1-aminopropan-2-yl]-4-fluoro-2-methyl-1H-benzimidazol-6-yl}-5-chloropyrimidin-2-yl)amino]-1-(methanesulfonyl)piperidin-3-ol], the IC50 turned out to be 456 nM on CDK4 and 598 nM at CDK6. The figures for the Ki at CDK6/Cyclin D3 and on CDK4/Cyclin D1 were 10.2 nM and 0.5 nM, respectively.
Take `CC(C)n1c(C(C)(C)O)nc2c(F)cc(-c3nc(N[C@@H]4CCOC[C@H]4O)ncc3Cl)cc21` [Example A94, 1,5-anhydro-3-({5-chloro-4-[4-fluoro-2-(2-hydroxypropan-2-yl)-1-(propan-2-yl)-1H-benzimidazol-6-yl]pyrimidin-2-yl}amino)-2,3-dideoxy-D-threo-pentitol]: the half-maximal inhibitory concentration (IC50) on CDK4 was found to be 38.5 nM; on CDK6, 145 nM. In addition, the Ki at CDK6/Cyclin D3 was 13.9 nM; at CDK4/Cyclin D1, 0.6 nM.
`CC1(C)COCc2nc3c(F)cc(-c4nc(N[C@@H]5CCOC[C@H]5O)ncc4F)cc3n21` [Example A19]: the IC50 on CDK4 was 69.1 nM; on CDK6 it was 318 nM. Also, the figures for the Ki on CDK6/Cyclin D3 and on CDK4/Cyclin D1 were 14.6 nM and 0.9 nM, respectively.
The corresponding values for `Cc1nc2ccc(-c3cc(N[C@@H]4CCOC[C@H]4O)ncc3Cl)nc2n1C(C)C` [Example D05, 1,5-anhydro-3-({5-chloro-4-[2-methyl-3-(propan-2-yl)-3H-imidazo[4,5-b]pyridin-5-yl]pyridin-2-yl}amino)-2,3-dideoxy-D-threo-pentitol] are 85.7 nM, 258 nM, 39.4 nM and 2.2 nM.
`CNCC(=O)N1CC[C@@H](Nc2ncc(F)c(-c3cc(F)c4nc(C)n(C(C)C)c4c3)n2)[C@H](O)C1` [Example F23, 1-[(3R,4R)-4-({5-fluoro-4-[4-fluoro-2-methyl-1-(propan-2-yl)-1H-benzimidazol-6-yl]pyrimidin-2-yl}amino)-3-hydroxypiperidin-1-yl]-2-(methylamino)ethan-1-one]: the values for the half-maximal inhibitory concentration (IC50) on CDK4 and at CDK6 were 692 nM and 1320 nM, respectively. Moreover, the Ki at CDK6/Cyclin D3 worked out at 11 nM; on CDK4/Cyclin D1, 1 nM.
In the same order, the values of `CC(C)NCc1nc2c(F)cc(-c3nc(N[C@@H]4CCN(S(C)(=O)=O)C[C@H]4O)ncc3Cl)cc2n1C(C)C` [Example H10, (3R,4R)-4-({5-chloro-4-[4-fluoro-1-(propan-2-yl)-2-{[(propan-2-yl)amino]methyl}-1H-benzimidazol-6-yl]pyrimidin-2-yl}amino)-1-(methanesulfonyl)piperidin-3-ol] are 14.9 nM, 51.1 nM, 16.4 nM and 0.5 nM.
